Source: ChEMBL document CHEMBL6182918, “Developing Dual-State Emission Berberine Derivatives as Theranostic Agents by Reducing Nonradiative Transition Pathways” (J Med Chem, 2025)
Calls of active or inactive are those of the source. No cut-off for these calls is given here.

Experiments:
Staphylococcus aureus [1] = assay: Antibacterial activity against Staphylococcus aureus ATCC 25923 assessed as reduction in colony forming units at 50 ug/ml preincubated for 5 to 20 mins in PBS followed by culturing on LB agar plate for 18 hrs by plate-count method; type: functional, organism-based; details: dose 50.0 µg/ml, time 1085-1100 min
Staphylococcus aureus [2] = assay: Antibacterial activity against Staphylococcus aureus ATCC 29213 assessed as inhibition of bacterial growth by CLSI based broth microdilution method; type: functional, organism-based
Staphylococcus aureus [3] = assay: Photodynamic antibacterial activity against Staphylococcus aureus ATCC 25923 assessed as log reduction in colony forming units at 50 ug/ml preincubated for 5 mins in PBS followed by light irradiation for 20 mins and later cultured on LB agar plate for 18 hrs by plate-count method; type: functional; details: dose 50 µg/ml; time 1105 min; 18.42 h
[4] = Induction of ROS generation in aqueous solution assessed as singlet oxygen generation (1O2) at 10 ug/ml pretreated with compound followed by light irradiation for 28 mins by fluorescence based analysis; type: functional; details: dose 10.0 µg/ml
[5] = Induction of ROS generation in aqueous solution assessed as hydroxyl radical generation (.OH) at 10 ug/ml pretreated with compound followed by light irradiation for 28 mins by fluorescence based analysis; type: functional; details: dose 10.0 µg/ml
[6] = Aqueous solubility of the compound relative to berberine; type: physicochemical; details: buffer
Escherichia coli [7] = assay: Photodynamic antibacterial activity against Escherichia coli EHEC assessed as reduction in colony forming units at 50 ug/ml preincubated for 5 mins in PBS followed by light irradiation for 20 mins and later cultured on LB agar plate for 18 hrs by plate-count method; type: functional, organism-based; details: dose 50.0 µg/ml, time 1105.0 min
Staphylococcus aureus [8] = assay: Antibacterial activity against Staphylococcus aureus assessed as inhibition of bacterial growth by CLSI based broth microdilution method; type: functional
Escherichia coli [9] = assay: Antibacterial activity against Escherichia coli assessed as inhibition of bacterial growth by CLSI based broth microdilution method; type: functional, organism-based
Staphylococcus aureus [10] = assay: Photodynamic antibacterial activity against Staphylococcus aureus ATCC 25923 assessed as reduction in colony forming units at 50 ug/ml preincubated for 5 mins in PBS followed by light irradiation for 5 to 20 mins and later cultured on LB agar plate for 18 hrs by plate-count method; type: functional, organism-based; details: dose 50.0 µg/ml, time 1090-1105 min
[11] = Stability of the compound in the solution assessed as fluorescence intensity measured after 28 mins of light exposure by fluorescence based analysis; type: physicochemical; details: read-out: Stability
Staphylococcus aureus [12] = assay: (§1) Photodynamic antibacterial activity against Staphylococcus aureus infected in mouse assessed as reduction in pyosis in wounds at 50 ug/ml pretreated with compound followed by LED light irradiation for 30 mins and measured on day 1; type: functional, organism-based; details: dose 50.0 µg/ml, time 1.0 day
Staphylococcus aureus [13] = assay: Antibacterial activity against Staphylococcus aureus infected in mouse assessed as reduction in pyosis in wounds at 50 ug/ml measured on day 1; type: functional, organism-based; details: dose 50.0 µg/ml, time 1.0 day
Staphylococcus aureus [14] = assay: Photodynamic antibacterial activity against Staphylococcus aureus infected in mouse assessed as reduction in neutrophils content in wounds at 50 ug/ml and measured on day 3 by Hematoxylin-Eosin staining based analysis; type: functional, organism-based; details: dose 50.0 µg/ml, time 3.0 day
Staphylococcus aureus [15] = assay: as §1, with “bacterial count” for “pyosis”, “and” for “and measured”, “5 the infected tissue harvested and cultured on LB agar plate and measured after 24 hrs by plate count method” for “1”; type: functional, organism-based; details: dose 50.0 µg/ml, time 6.0 day
[16] = Drug uptake in Staphylococcus aureus assessed as increase in bacterial imaging at 10 ug/ml by laser scanning confocal microscopic analysis; type: ADME; details: dose 10 µg/ml
Staphylococcus aureus [17] = assay: Photodynamic antibacterial activity against Staphylococcus aureus ATCC 43300 assessed as reduction in colony forming units at 50 ug/ml preincubated for 5 mins in PBS followed by light irradiation for 20 mins and later cultured on LB agar plate for 18 hrs by plate-count method; type: functional, organism-based; details: dose 50.0 µg/ml, time 1105.0 min
Staphylococcus aureus [18] = assay: Antibacterial activity against Staphylococcus aureus ATCC 25923 assessed as viable cells with tiny amount of PI emission at 10 ug/ml measured under dark conditions by PI co-staining based fluorescence analysis; type: functional, organism-based; details: dose 10.0 µg/ml
Staphylococcus aureus [19] = assay: Photodynamic antibacterial activity against Staphylococcus aureus ATCC 25923 assessed as reduction in colony forming units at 50 to 100 ug/ml preincubated for 5 mins in PBS followed by light irradiation for 20 mins and later cultured on LB agar plate for 18 hrs by plate-count method; type: functional, organism-based; details: dose 50-100 µg/ml, time 1105.0 min
Cell membrane [20] = assay: Disruption of inner cell membrane in Staphylococcus aureus assessed as increase in cell permeability by measuring increase in PI fluorescence intensity at 12.5 to 50 ug/ml measured after light irradiation by PI based fluorescence based analysis; type: subcellular; details: dose 12.5-50 µg/ml
Cell membrane [21] = assay: Disruption of cell membrane in Staphylococcus aureus assessed as increase in membrane depolarization by measuring increase in fluorescence intensity measured after light irradiation by DiBAC4(3) based fluorescence analysis; type: subcellular; details: dose 25-100 µg/ml
Staphylococcus aureus [22] = assay: Photodynamic antibacterial activity against Staphylococcus aureus infected in mouse assessed as reduction in pyosis in wounds at 50 ug/ml pretreated with compound followed by LED light irradiation for 30 mins and measured on day 5; type: functional, organism-based; details: dose 50.0 µg/ml, time 5.0 day
[23] = Drug uptake in Escherichia coli EHEC measured after washing by absorbance based analysis; type: ADME
Staphylococcus aureus [24] = assay: Photodynamic antibacterial activity against Staphylococcus aureus ATCC 700699 assessed as reduction in colony forming units at 50 to 100 ug/ml preincubated for 5 mins in PBS followed by light irradiation for 20 mins and later cultured on LB agar plate for 18 hrs by plate-count method; type: functional, organism-based; details: dose 50-100 µg/ml, time 1105.0 min
[25] = Drug uptake in Staphylococcus aureus ATCC 25923 measured after washing by absorbance based analysis; type: ADME
Staphylococcus aureus [26] = assay: Photodynamic antibacterial activity against Staphylococcus aureus ATCC 700699 assessed as reduction in colony forming units at 50 ug/ml preincubated for 5 mins in PBS followed by light irradiation for 20 mins and later cultured on LB agar plate for 18 hrs by plate-count method; type: functional, organism-based; details: dose 50.0 µg/ml, time 1105.0 min
DNA [27] = assay: Binding affinity to Staphylococcus aureus DNA assessed as change in absorbance spectrum by absorbance based analysis; type: nucleic-acid assay
Cell membrane [28] = assay: Binding affinity to cell membrane in Staphylococcus aureus assessed as membrane potential collapse at 25 to 50 ug/ml by measuring increase in fluorescence intensity measured after light irradiation by Rhodamine123 staining based fluorescence analysis; type: subcellular; details: dose 25-50 µg/ml
Cell membrane [29] = assay: Binding affinity to cell membrane in Staphylococcus aureus assessed as membrane potential collapse at 25 to 100 ug/ml by measuring increase in fluorescence intensity measured under dark conditions by Rhodamine123 staining based fluorescence analysis; type: subcellular; details: dose 25-100 µg/ml
Staphylococcus aureus [30] = assay: Photodynamic antibacterial activity against Staphylococcus aureus infected in mouse assessed as reduction in pyosis in wounds at 50 ug/ml pretreated with compound followed by LED light irradiation for 30 mins and measured on day 3; type: functional, organism-based; details: dose 50.0 µg/ml, time 3.0 day
DNA [31] = assay: Binding affinity to Staphylococcus aureus DNA assessed as induction of genomic DNA degradation measured after 20 mins of light irradiation by absorbance based analysis; type: nucleic-acid assay; details: dose 12.5-100 µg/ml
Staphylococcus aureus [32] = assay: Photodynamic antibacterial activity against Staphylococcus aureus ATCC 29213 assessed as reduction in colony forming units at 50 to 100 ug/ml preincubated for 5 mins in PBS followed by light irradiation for 20 mins and later cultured on LB agar plate for 18 hrs by plate-count method; type: functional, organism-based; details: dose 50-100 µg/ml, time 1105.0 min
Staphylococcus aureus [33] = assay: Photodynamic antibacterial activity against Staphylococcus aureus ATCC 25923 assessed as reduction in bacterial cell viability by measuring increase in PI-stained cells at 10 ug/ml preincubated for 5 mins in PBS followed by light irradiation for 20 mins by PI co-staining based fluorescence analysis; type: functional, organism-based; details: dose 10.0 µg/ml, time 25.0 min
Staphylococcus aureus [34] = assay: Photodynamic antibacterial activity against Staphylococcus aureus ATCC 43300 assessed as reduction in colony forming units at 50 to 100 ug/ml preincubated for 5 mins in PBS followed by light irradiation for 20 mins and later cultured on LB agar plate for 18 hrs by plate-count method; type: functional, organism-based; details: dose 50-100 µg/ml, time 1105.0 min
Staphylococcus aureus [35] = assay: Photodynamic antibacterial activity against Staphylococcus aureus ATCC 29213 assessed as reduction in colony forming units at 50 ug/ml preincubated for 5 mins in PBS followed by light irradiation for 20 mins and later cultured on LB agar plate for 18 hrs by plate-count method; type: functional, organism-based; details: dose 50.0 µg/ml, time 1105.0 min
[36] = Drug uptake in Staphylococcus aureus ATCC 43300 measured after washing by absorbance based analysis; type: ADME
Staphylococcus aureus [37] = assay: Photodynamic bactericidal activity against Staphylococcus aureus assessed as appearance of broken and shrunk bacterial cells at 50 ug/ml pretreated for 5 mins followed by light irradiation for 20 mins SEM analysis; type: functional, organism-based; details: dose 50.0 µg/ml, time 25.0 min
Escherichia coli [38] = assay: Photodynamic antibacterial activity against Escherichia coli EPEC assessed as reduction in colony forming units at 50 ug/ml preincubated for 5 mins in PBS followed by light irradiation for 20 mins and later cultured on LB agar plate for 18 hrs by plate-count method; type: functional, organism-based; details: dose 50.0 µg/ml, time 1105.0 min
[39] = Drug uptake in Escherichia coli assessed as increase in bacterial imaging at 10 ug/ml by laser scanning confocal microscopic analysis; type: ADME; details: dose 10 µg/ml

COc1cccc2cc3[n+](cc12)CCc1cc2c(cc1-3)OCO2.[Cl-]
Activity (Staphylococcus aureus [1]): inactive
Activity (Staphylococcus aureus [2]): Active
Activity (Staphylococcus aureus [3]): 4 log10CFU/ml

COc1ccc2c(c1)CC[n+]1cc3c4c(ccc3cc1-2)OCO4
Activity [4]: inactive
Activity [5]: inactive

COc1ccc2c(c1)CC[n+]1cc3cc4c(cc3cc1-2)OCO4
Activity [4]: Active
Activity [5]: Active

COc1ccc2c(c1)CC[n+]1cc3cc(OC)ccc3cc1-2.[Cl-]
fold change (FC) [6]: ~ 10
Activity (Escherichia coli [7]): inactive
Activity (Staphylococcus aureus [1]): inactive
Activity [4]: Active
Activity (Staphylococcus aureus [8]): Active
Activity (Staphylococcus aureus [3]): 4.5 log10CFU/ml
Activity (Escherichia coli [9]): Active; Activity Against Escherichia Coli Is Lower Than Staphylococcus Aureus
Activity (Staphylococcus aureus [10]): Time-dependent-effect
Activity [5]: Active

CCCCN1C(=O)C(=C/C=C/C2C(=O)N(CCCC)C(=O)N(CCCC)C2=O)C(=O)N(CCCC)C1=O
remaining at 28 min [11]: 40%

COc1ccc2cc3[n+](cc2c1OC)CCc1cc2c(cc1-3)OCO2.[Cl-] [BERBERINE CHLORIDE]
Activity (Staphylococcus aureus [12]): inactive
Activity (Staphylococcus aureus [13]): inactive
remaining at 28 min [11]: 60%
Activity (Staphylococcus aureus [3]): 2 log10CFU/ml
Activity (Staphylococcus aureus [14]): inactive
Activity (Staphylococcus aureus [15]): Active

COc1ccc2c(c1)CC[n+]1cc3ccccc3cc1-2
Activity [4]: inactive
Activity [5]: inactive

COc1ccc2c(c1)CC[n+]1cc3c(OC)cccc3cc1-2.[Cl-]
Drug uptake [16]: Active
Activity (Staphylococcus aureus [17]): Active; Higher Activity Compared To Bbr And Mb But Lower Activity Compared To Ce6
fold change (FC) [6]: ~ 10
Activity (Staphylococcus aureus [18]): inactive
Activity (Escherichia coli [7]): inactive
Activity (Staphylococcus aureus [19]): Dose-dependent-effect
Activity (Cell membrane [20]): Dose-dependent-effect
Activity (Staphylococcus aureus [12]): Active
Activity (Cell membrane [21]): Dose-dependent-effect
Activity (Staphylococcus aureus [22]): Active; Favourable Wound Healing Status Observed
Drug uptake [23]: Not_active
Activity (Staphylococcus aureus [1]): inactive
Activity (Staphylococcus aureus [24]): Dose-dependent-effect
Drug uptake [25]: Active
Activity (Staphylococcus aureus [26]): Active; Higher Activity Compared To Bbr And Mb But Lower Activity Compared To Ce6
remaining at 28 min [11]: ~90%
Activity (DNA [27]): Active
Activity (Cell membrane [28]): Active
Activity (Cell membrane [29]): Active
Activity [4]: Active
Activity (Staphylococcus aureus [30]): Active; Pyosis Nearly Disappeared
MIC (Staphylococcus aureus [8]): 50 µg/mL
Activity (DNA [31]): Dose-dependent-effect
Activity (Staphylococcus aureus [3]): ~5 log10CFU/ml
Activity (Staphylococcus aureus [32]): Dose-dependent-effect
Activity (Staphylococcus aureus [33]): Active
Activity (Staphylococcus aureus [34]): Dose-dependent-effect
Activity (Escherichia coli [9]): Active; Activity Against Escherichia Coli Is Lower Than Staphylococcus Aureus
Activity (Staphylococcus aureus [10]): Time-dependent-effect
Activity (Staphylococcus aureus [35]): Active; Higher Activity Compared To Bbr And Mb But Lower Activity Compared To Ce6
Drug uptake [36]: Not_active
Activity (Staphylococcus aureus [37]): Active
Activity (Escherichia coli [38]): Active
Activity [5]: Active
Activity (Staphylococcus aureus [15]): Active
Drug uptake [39]: Active
